{"source": "paper PMC11882969", "about": "(Nature Communications, 2025)", "target": "hCB1 (Homo sapiens, UniProt P21554)", "sequence (P21554 whole entry)": "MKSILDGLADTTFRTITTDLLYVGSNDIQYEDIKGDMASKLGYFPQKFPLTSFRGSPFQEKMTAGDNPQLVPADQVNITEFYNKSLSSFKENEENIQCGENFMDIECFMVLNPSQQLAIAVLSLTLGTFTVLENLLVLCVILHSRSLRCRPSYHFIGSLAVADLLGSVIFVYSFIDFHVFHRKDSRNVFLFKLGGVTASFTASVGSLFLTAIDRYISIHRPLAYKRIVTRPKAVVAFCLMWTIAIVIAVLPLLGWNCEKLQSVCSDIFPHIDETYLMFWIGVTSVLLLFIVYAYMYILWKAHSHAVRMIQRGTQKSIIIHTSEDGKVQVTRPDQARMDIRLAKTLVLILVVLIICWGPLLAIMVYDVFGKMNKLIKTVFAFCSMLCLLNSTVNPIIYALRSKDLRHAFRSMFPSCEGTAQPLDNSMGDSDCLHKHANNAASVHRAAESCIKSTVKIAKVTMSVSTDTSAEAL", "assay": "bioSensAll ebBRET signaling profiling, hCB1", "assay_type": "cell-based", "set-up": "host or cells: HEK293SL cells, transient PEI transfection", "conditions": "for Gi1 hCB1 response: Gi1 biosensor; for Gi1 hCB1 / GoB hCB1: single replicate values, FigS6a", "note": "“And” between values parts separate entries of the source, which are not always exact repeats. Equal entries are not always repeated.", "data": [{"smiles": "COC(=O)[C@@H]1[C@@H]2CCC[C@@H]2CN1C(=O)c1cc(C)n(-c2cccc(C(F)(F)F)c2)n1", "note": "[‘6439]", "values": [{"measurement": "Gi1 hCB1 response", "setting": "Log [Compound] (M) -4.22186", "value": 151.018}, {"measurement": "Gi1 hCB1 response", "setting": "Log [Compound] (M) -4.63927", "value": 115.678}, {"measurement": "Gi1 hCB1 response", "setting": "Log [Compound] (M) -5.05788", "value": 127.496}, {"measurement": "Gi1 hCB1 response", "setting": "Log [Compound] (M) -5.47381", "value": 106.412}, {"measurement": "Gi1 hCB1 response", "setting": "Log [Compound] (M) -5.89285", "value": 85.038}, {"measurement": "Gi1 hCB1 response", "setting": "Log [Compound] (M) -6.31878", "value": 82.8446}, {"measurement": "Gi1 hCB1 response", "setting": "Log [Compound] (M) -6.72585", "value": 60.217}, {"measurement": "Gi1 hCB1 response", "setting": "Log [Compound] (M) -7.14267", "value": 58.225}, {"measurement": "Gi1 hCB1 response", "setting": "Log [Compound] (M) -7.55284", "value": 19.617}, {"measurement": "Gi1 hCB1 response", "setting": "Log [Compound] (M) -8", "value": 16.8865}, {"measurement": "Gi1 hCB1 response", "setting": "Log [Compound] (M) -8.22186", "value": 14.8945}, {"measurement": "Gi1 hCB1 response", "setting": "Log [Compound] (M) -8.39794", "value": 2.361}, {"measurement": "Gi1 hCB1 response", "setting": "Log [Compound] (M) -8.68787", "value": 6.703}, {"measurement": "Gi1 hCB1 response", "setting": "Log [Compound] (M) -9.15521", "value": 0.8614}, {"measurement": "Gi1 hCB1 response", "setting": "Log [Compound] (M) -9.61989", "value": -7.912}, {"measurement": "Gi1 hCB1 response", "setting": "Log [Compound] (M) -10.0969", "value": -33.897}, {"measurement": "Gi1 hCB1 response", "setting": "Log [Compound] (M) -10.5529", "value": -6.905}, {"measurement": "Gi1 hCB1 response", "setting": "Log [Compound] (M) -11.0177", "value": 0.7271}, {"measurement": "Gi1 hCB1 response", "setting": "Log [Compound] (M) -11.4949", "value": -12.7913}, {"measurement": "Gi1 hCB1 response", "setting": "Log [Compound] (M) -11.9208", "value": -11.6498}, {"measurement": "Gi1 hCB1 response", "setting": "Log [Compound] (M) -12.3979", "value": -8.158}, {"measurement": "Gi1 hCB1 response", "setting": "Log [Compound] (M) -12.8861", "value": -13.8656}, {"measurement": "Gi1 hCB1 response", "setting": "Log [Compound] (M) -13, individual replicate values", "value": "6.815 and -3.369"}, {"measurement": "Gi1 hCB1", "setting": "Log [Compound] (M) -4.22186", "value": 102.871}, {"measurement": "GoB hCB1", "setting": "Log [Compound] (M) -4.22186", "value": 99.959}, {"measurement": "Gi1 hCB1", "setting": "Log [Compound] (M) -4.63927", "value": 91.1085}, {"measurement": "GoB hCB1", "setting": "Log [Compound] (M) -4.63927", "value": 101.488}, {"measurement": "Gi1 hCB1", "setting": "Log [Compound] (M) -5.05788", "value": 91.2935}, {"measurement": "GoB hCB1", "setting": "Log [Compound] (M) -5.05788", "value": 96.0026}, {"measurement": "Gi1 hCB1", "setting": "Log [Compound] (M) -5.47381", "value": 93.4364}, {"measurement": "GoB hCB1", "setting": "Log [Compound] (M) -5.47381", "value": 100.139}, {"measurement": "Gi1 hCB1", "setting": "Log [Compound] (M) -5.89285", "value": 89.3202}, {"measurement": "GoB hCB1", "setting": "Log [Compound] (M) -5.89285", "value": 94.2762}, {"measurement": "Gi1 hCB1", "setting": "Log [Compound] (M) -6.31878", "value": 88.4414}, {"measurement": "GoB hCB1", "setting": "Log [Compound] (M) -6.31878", "value": 89.4207}, {"measurement": "Gi1 hCB1", "setting": "Log [Compound] (M) -6.72585", "value": 73.3178}, {"measurement": "GoB hCB1", "setting": "Log [Compound] (M) -6.72585", "value": 75.088}, {"measurement": "Gi1 hCB1", "setting": "Log [Compound] (M) -7.14267", "value": 49.9}, {"measurement": "GoB hCB1", "setting": "Log [Compound] (M) -7.14267", "value": 54.2273}, {"measurement": "Gi1 hCB1", "setting": "Log [Compound] (M) -7.55284", "value": 26.2355}, {"measurement": "GoB hCB1", "setting": "Log [Compound] (M) -7.55284", "value": 30.9029}, {"measurement": "Gi1 hCB1", "setting": "Log [Compound] (M) -8", "value": 8.645}, {"measurement": "GoB hCB1", "setting": "Log [Compound] (M) -8", "value": 13.9266}, {"measurement": "Gi1 hCB1", "setting": "Log [Compound] (M) -8.22186", "value": 5.331}, {"measurement": "GoB hCB1", "setting": "Log [Compound] (M) -8.22186", "value": 0.7628}, {"measurement": "Gi1 hCB1", "setting": "Log [Compound] (M) -8.39794", "value": 4.128}, {"measurement": "GoB hCB1", "setting": "Log [Compound] (M) -8.39794", "value": 8.262}, {"measurement": "Gi1 hCB1", "setting": "Log [Compound] (M) -8.68787", "value": 4.853}, {"measurement": "GoB hCB1", "setting": "Log [Compound] (M) -8.68787", "value": -0.2442}, {"measurement": "Gi1 hCB1", "setting": "Log [Compound] (M) -9.15521", "value": 1.029}, {"measurement": "GoB hCB1", "setting": "Log [Compound] (M) -9.15521", "value": -1.989}, {"measurement": "Gi1 hCB1", "setting": "Log [Compound] (M) -9.61989", "value": 0.2894}]}]}
